The text below walks through data of the supplement of paper PMC11208160.
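Also: IS621 bridge recombinase in Escherichia coli cells against a fixed T5 target plasmid.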

The nature of this data set: recombinant UMI read abundance after kanamycin selection (control-corrected) (log10(CPM+1)); higher = more efficient recombination; extreme values may be limits of the assay; sequences stand for … in AGTGCAGAGAAAATCGGCCAGTTTTCTCTGCCTGCAGTCCGCATGCCGTGGGACCCCTTGGGTTCTAACCTGTTGCCTAGATTTATGCAGCGGACTGCCTTTCTCCCAAAGTGATAAACCGG…AGGTTGGTTTCACT; site = the 11-nt donor. How it is done:
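Pooled E. coli donor-specificity screen for the IS621 bridge recombinase. Each library member carries a reprogrammed 11-nt donor and a full-length LE bridge RNA expressed in cis from the natural promoter, with a paired donor-binding loop (8-nt LDG + 4-nt RDG) and a target-binding loop fixed to T5. It is co-electroporated with a T5 target plasmid; recombinase is induced with 0.07 mM IPTG and recombinants are selected on kanamycin. UMIs are counted as CPM, averaged over two biological replicates and corrected by the unselected control. Molecule = full bridge RNA written as DNA, built from the T5 scaffold: LDG = donor specificity nt 1-8, RDG = reverse complement of nt 8-11.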
In the case of “ACATCTGCATGGACCGGTTTTCCCGGTAATCCGTATTTGTG (site ACATCTGCTCA)”, the “recombinant UMI read abundance (log10)” value was determined as 1.37.

With “ACATCTGCATGGACCGGTTTTCCCGGTAATCCGTATTTGTG (site ACATCTTCTCA)”, the “recombinant UMI read abundance (log10)” value worked out at 0.5.

With “ACATGAACATGGACCGGTTTTCCCGGTAATCCGTATTTGAG (site ACATGAACTCT)”, the “recombinant UMI read abundance (log10)” value worked out at 2.07.

In the case of “ACATGAACATGGACCGGTTTTCCCGGTAATCCGTATTTGTC (site ACAAGAACTGA)”, the “recombinant UMI read abundance (log10)” value amounted to 0.

With “ACATGAACATGGACCGGTTTTCCCGGTAATCCGTATTTGTC (site ACACGAACTGA)”, the “recombinant UMI read abundance (log10)” value is 0.197.

For “ACATGAACATGGACCGGTTTTCCCGGTAATCCGTATTTGTC (site ACAGGAACTGA)”, the “recombinant UMI read abundance (log10)” value came out at 0.

“ACATGAACATGGACCGGTTTTCCCGGTAATCCGTATTTGTC (site ACATGAACTGA)”: the “recombinant UMI read abundance (log10)” value is 1.57.

Turning to “ACATGACCATGGACCGGTTTTCCCGGTAATCCGTATTTGCC (site ACATGACCTGG)”, the “recombinant UMI read abundance (log10)” value was 0.

With “ACATGCGCATGGACCGGTTTTCCCGGTAATCCGTATTTGCA (site ACATGCGCTTG)”, the “recombinant UMI read abundance (log10)” value stood at 2.86.

Regarding “ACATGTACATGGACCGGTTTTCCCGGTAATCCGTATTTGGT (site ACATGTACTAC)”, the “recombinant UMI read abundance (log10)” value is 1.73.

“ACATTCTCATGGACCGGTTTTCCCGGTAATCCGTATTTGCC (site ACATTCTCTGG)”: the “recombinant UMI read abundance (log10)” value was found to be 1.63.

For “ACATTGACATGGACCGGTTTTCCCGGTAATCCGTATTTGAA (site ACATTGACTTT)”, the “recombinant UMI read abundance (log10)” value amounted to 1.76.

Regarding “ACATTTACATGGACCGGTTTTCCCGGTAATCCGTATTTGTG (site ACATATACTCA)”, the “recombinant UMI read abundance (log10)” value was 0.00866.

Consider “ACATTTACATGGACCGGTTTTCCCGGTAATCCGTATTTGTG (site ACATCTACTCA)”, for which the “recombinant UMI read abundance (log10)” value was 0.162.

On to “ACATTTACATGGACCGGTTTTCCCGGTAATCCGTATTTGTG (site ACATGTACTCA)”, for which the “recombinant UMI read abundance (log10)” value was found to be 0.287.

Regarding “ACATTTACATGGACCGGTTTTCCCGGTAATCCGTATTTGTG (site ACATTTACTCA)”, the “recombinant UMI read abundance (log10)” value worked out at 0.706.

Consider “ACCAACTCATGGACCGGTTTTCCCGGTAATCCGTATTTGCC (site ACCAACTCTGG)”, for which the “recombinant UMI read abundance (log10)” value came out at 1.81.

For the sequence “ACCACGCCATGGACCGGTTTTCCCGGTAATCCGTATTTGTA (site ACCACGCCTTA)”, the “recombinant UMI read abundance (log10)” value was 0.0245.

“ACCACGCCATGGACCGGTTTTCCCGGTAATCCGTATTTGTA (site CCCACGCCTTA)”: the “recombinant UMI read abundance (log10)” value came out at 0.143.

“ACCACGCCATGGACCGGTTTTCCCGGTAATCCGTATTTGTA (site GCCACGCCTTA)”: the “recombinant UMI read abundance (log10)” value is 0.00875.

As for “ACCACGCCATGGACCGGTTTTCCCGGTAATCCGTATTTGTA (site TCCACGCCTTA)”, the “recombinant UMI read abundance (log10)” value amounted to 0.0133.

For “ACCAGCTCATGGACCGGTTTTCCCGGTAATCCGTATTTGCT (site ACCAGCTCTAG)”, the “recombinant UMI read abundance (log10)” value came to 2.25.

“ACCAGGTCATGGACCGGTTTTCCCGGTAATCCGTATTTGTA (site ACCAGGTCTTA)”: the “recombinant UMI read abundance (log10)” value worked out at 2.54.

In the case of “ACCATATCATGGACCGGTTTTCCCGGTAATCCGTATTTGCA (site ACAGTATCTTG)”, the “recombinant UMI read abundance (log10)” value is 0.937.

As to “ACCATATCATGGACCGGTTTTCCCGGTAATCCGTATTTGCA (site ACCATATCTTG)”, the “recombinant UMI read abundance (log10)” value was found to be 2.3.

Regarding “ACCCATCCATGGACCGGTTTTCCCGGTAATCCGTATTTGAC (site ACACATCCTGT)”, the “recombinant UMI read abundance (log10)” value amounted to 0.0114.

Take “ACCCATCCATGGACCGGTTTTCCCGGTAATCCGTATTTGAC (site ACCCATCCTGT)”: the “recombinant UMI read abundance (log10)” value amounted to 0.806.

With “ACCCATCCATGGACCGGTTTTCCCGGTAATCCGTATTTGAC (site ACGCATCCTGT)”, the “recombinant UMI read abundance (log10)” value turned out to be 0.

For “ACCCATCCATGGACCGGTTTTCCCGGTAATCCGTATTTGAC (site ACTCATCCTGT)”, the “recombinant UMI read abundance (log10)” value stood at 0.

Take “ACCCCAACATGGACCGGTTTTCCCGGTAATCCGTATTTGTA (site ACCCCAACTTA)”: the “recombinant UMI read abundance (log10)” value was 1.68.

Regarding “ACCCGATCATGGACCGGTTTTCCCGGTAATCCGTATTTGAT (site ACCCGATCTAT)”, the “recombinant UMI read abundance (log10)” value was 1.53.

On to “ACCCGCTCATGGACCGGTTTTCCCGGTAATCCGTATTTGTC (site ACCCGCTCTGA)”, for which the “recombinant UMI read abundance (log10)” value is 2.76.

For “ACCCGGGCATGGACCGGTTTTCCCGGTAATCCGTATTTGAC (site ACCCGGGCTGT)”, the “recombinant UMI read abundance (log10)” value was found to be 2.02.

Take “ACCGAACCATGGACCGGTTTTCCCGGTAATCCGTATTTGGA (site ACCGAACCTTC)”: the “recombinant UMI read abundance (log10)” value was 0.00378.

Turning to “ACCGAATCATGGACCGGTTTTCCCGGTAATCCGTATTTGCA (site ACAGTATCTTG)”, the “recombinant UMI read abundance (log10)” value was 0.

With “ACCGAATCATGGACCGGTTTTCCCGGTAATCCGTATTTGCA (site ACCGAATCTTG)”, the “recombinant UMI read abundance (log10)” value was determined as 2.16.

Regarding “ACCGACGCATGGACCGGTTTTCCCGGTAATCCGTATTTGTT (site ACCGACGCTAA)”, the “recombinant UMI read abundance (log10)” value was determined as 0.786.

“ACCGACTCATGGACCGGTTTTCCCGGTAATCCGTATTTGCC (site ACCGACTCTGG)”: the “recombinant UMI read abundance (log10)” value came to 1.78.

In the case of “ACCGATCCATGGACCGGTTTTCCCGGTAATCCGTATTTGCA (site ACCGATCCTTG)”, the “recombinant UMI read abundance (log10)” value came out at 0.164.

“ACCGCTACATGGACCGGTTTTCCCGGTAATCCGTATTTGCG (site ACCGCTACTCG)”: the “recombinant UMI read abundance (log10)” value was determined as 1.01.

For the sequence “ACCGCTGCATGGACCGGTTTTCCCGGTAATCCGTATTTGGC (site ACCGCTGCTGC)”, the “recombinant UMI read abundance (log10)” value was determined as 2.08.

Turning to “ACCGGAACATGGACCGGTTTTCCCGGTAATCCGTATTTGTG (site ACCGGAACTCA)”, the “recombinant UMI read abundance (log10)” value came to 1.41.

As for “ACCGGGACATGGACCGGTTTTCCCGGTAATCCGTATTTGAG (site ACCGGGACTCT)”, the “recombinant UMI read abundance (log10)” value came to 1.23.

“ACCGGTCCATGGACCGGTTTTCCCGGTAATCCGTATTTGCC (site ACCGGTCCTGG)”: the “recombinant UMI read abundance (log10)” value was determined as 0.

“ACCGGTGCATGGACCGGTTTTCCCGGTAATCCGTATTTGAG (site ACCGGTGCTCT)”: the “recombinant UMI read abundance (log10)” value stood at 1.35.

In the case of “ACCGTATCATGGACCGGTTTTCCCGGTAATCCGTATTTGCT (site ACAGTATCTTG)”, the “recombinant UMI read abundance (log10)” value is 0.

As to “ACCGTATCATGGACCGGTTTTCCCGGTAATCCGTATTTGCT (site ACCGTATCTAG)”, the “recombinant UMI read abundance (log10)” value worked out at 2.39.

Turning to “ACCGTATCATGGACCGGTTTTCCCGGTAATCCGTATTTGGT (site ACCGTATCTAC)”, the “recombinant UMI read abundance (log10)” value amounted to 1.32.

For the sequence “ACCTAAGCATGGACCGGTTTTCCCGGTAATCCGTATTTGGC (site ACCTAAGCTGC)”, the “recombinant UMI read abundance (log10)” value stood at 2.22.

As to “ACCTACCCATGGACCGGTTTTCCCGGTAATCCGTATTTGAC (site ACCTACCCTGT)”, the “recombinant UMI read abundance (log10)” value was 0.183.

“ACCTGATCATGGACCGGTTTTCCCGGTAATCCGTATTTGAT (site ACCTGATCTAT)”: the “recombinant UMI read abundance (log10)” value stood at 0.427.

For “ACCTGCCCATGGACCGGTTTTCCCGGTAATCCGTATTTGTT (site ACCTGCCCTAA)”, the “recombinant UMI read abundance (log10)” value was 0.188.

As for “ACCTGGACATGGACCGGTTTTCCCGGTAATCCGTATTTGCA (site ACCTGGACTTG)”, the “recombinant UMI read abundance (log10)” value worked out at 1.82.

Consider “ACCTGGACATGGACCGGTTTTCCCGGTAATCCGTATTTGTG (site ACCTGGACTCA)”, for which the “recombinant UMI read abundance (log10)” value worked out at 0.502.

Turning to “ACCTGGGCATGGACCGGTTTTCCCGGTAATCCGTATTTGTC (site ACCTGGGCTGA)”, the “recombinant UMI read abundance (log10)” value was found to be 0.

In the case of “ACCTTAGCATGGACCGGTTTTCCCGGTAATCCGTATTTGAA (site ACCTTAGCTTT)”, the “recombinant UMI read abundance (log10)” value was 0.29.

In the case of “ACCTTAGCATGGACCGGTTTTCCCGGTAATCCGTATTTGGT (site ACCTTAGCTAC)”, the “recombinant UMI read abundance (log10)” value turned out to be 0.271.

Consider “ACCTTCTCATGGACCGGTTTTCCCGGTAATCCGTATTTGGG (site ACCTTCTCTCC)”, for which the “recombinant UMI read abundance (log10)” value stood at 0.00668.

For the sequence “ACCTTCTCATGGACCGGTTTTCCCGGTAATCCGTATTTGGG (site CCCTTCTCTCC)”, the “recombinant UMI read abundance (log10)” value was 0.00967.

As for “ACCTTCTCATGGACCGGTTTTCCCGGTAATCCGTATTTGGG (site GCCTTCTCTCC)”, the “recombinant UMI read abundance (log10)” value amounted to 0.00741.

For “ACCTTCTCATGGACCGGTTTTCCCGGTAATCCGTATTTGGG (site TCCTTCTCTCC)”, the “recombinant UMI read abundance (log10)” value was 0.00341.

Regarding “ACGAACTCATGGACCGGTTTTCCCGGTAATCCGTATTTGTC (site ACGAACTCTGA)”, the “recombinant UMI read abundance (log10)” value was 2.03.

Turning to “ACGAAGACATGGACCGGTTTTCCCGGTAATCCGTATTTGTA (site ACGAAGACTTA)”, the “recombinant UMI read abundance (log10)” value was 2.82.

Regarding “ACGAAGACATGGACCGGTTTTCCCGGTAATCCGTATTTGTA (site AGGAAGACTTG)”, the “recombinant UMI read abundance (log10)” value was determined as 0.

Regarding “ACGAAGCCATGGACCGGTTTTCCCGGTAATCCGTATTTGGG (site ACGAAGCCTCC)”, the “recombinant UMI read abundance (log10)” value turned out to be 0.0169.
